Test results taken from patent US7001770B1, “Calpain inhibitors and their applications” (priority 1998, dated 2006).
Square brackets hold non-standard residues; d marks the D form. Peptide text beside a SMILES is read from it. Nle = CCCC[C@H](N)C(=O)O

How the values were obtained:
Format in all cases: cell-based
[1] = tested on: p53 and p21 protein levels in HLF cells; assay: Western blot of p53 and p21 levels; conditions: 17 hours
Description: (§1) FIG. 5 contains the results of Western blots measuring the levels of p53 and p21 in rAd-p53 infected cells in the presence of varying concentrations of CI-1. Above each lane is a “+” of “−” which indicates if the cells were pulsed with 1×10^9 rAd-p53 for one hour (+) or not (−). The row of numbers below indicates the μM concentration of CI-1 to which the cells were exposed at 17 hours post-infection. The upper row of chemiluminescent signals provides the levels of p53 while the lower row of chemiluminescent signals provides the levels of p21. […] When 5 μM CI-1 was added with rAd-p53, the levels of p53 increased two fold, as quantitated on NIH imaging.
(§2) At 17 hours post treatment, cells were lysed in protein lysis buffer (50 mM tris, 250 mM NaCl, 50 mM NaF, 5 mM EDTA and 0.1% NP-40 with 1 mM PMSF). Cell lysates were subjected to electrophoresis. 10 μg of protein was added per lane on a 12% polyacrylamide gel and transfered onto nitrocellulose membranes. The membranes were subjected to western blot analysis using antibodies specific for p53 or p21 (Calbiochem, p53 antibody Ab-6, and p21 antibody Ab-7). HRP-conjugated secondary antibody (Amersham) was added for one hour at which time the blots were washed. Blots were developed using enhanced chemiluminescence detection system (Amersham) and quantitated using NIH imaging analysis.

[2] = tested on: p53 and p21 protein levels in RKO cells; assay: Western blot of p53 and p21 levels; conditions: 17 hours
Description: as §1, §2

NF-kB = assay: Gel shift assay; conditions: HLF cells; 10 μM CI-1; 24 hours post treatment
Description: (§3) The lanes on the gel are labelled as follows: Lane 1=DMF solvent alone control; Lane 2=10 μM CI-1; Lane 3=a null control vector based on ACN53 without the p53 transgene (ZZCB); Lane 4=ZZCB+10 μM CI-1; Lane 5=ACN53 alone and Lane 6=ACN53+ 10 μM CI-1. Panel A illustrates the induction of NF-kb upon administration of calpain inhibitor 1. Panel B illustrates the induction of AP-1 upon administration of calpain inhibitor 1.
(§4) In contrast to these studies, the present invention further provides a method of enhancing transcription of a therapeutic transgene from the CMV promoter. The term “enhancing transcription” refers to an increase in the transcriptional activity of those sequences operably linked to the CMV promter. The term CMV promoter means the immediate early promoter of the cytomegalovirus. The promoter may be isolated as a restriction endonuclease fragment from the commercially available vector pCMVβ (GenBank Accession Number U02451). […] The CMV promoter is a strong constituitive promoter widely utilized in the expression of exogenous transgenes from viral vectors. Recent reports indicated an upregulation of the CMV promoter driven genes in response to recombinant adenoviral infection. […] In response to calpain inhibitor 1 treatment, a 42% increase in NF-kB activation was detected, and a 50% increase in AP1 activation was detected as quantified by densitometer readings. […]

AP-1 = assay: Gel shift assay; conditions: HLF cells; 10 μM CI-1; 24 hours post treatment
Description: as §3, §4

[3] = tested on: p53 levels in cell lines with endogenous wildtype and mutated p53 status; assay: Western blot of p53 levels; conditions: in response to calpain inhibitor 1 (FIG. 5)

SMILES: CCCC[C@@H](C=O)NC(=O)[C@H](CC(C)C)NC(=O)[C@H](CC(C)C)NC(C)=O [CI-1, N-acetyl-leu-leu-norleucinal] (Ac-Leu-Leu-[Nle]-aldehyde)
- increase in levels of p53 (NIH imaging) ([1]; 5 μM CI-1 added with 1×10^9 rAd-p53, versus rAd-p53 alone): two fold
- increase in levels of p53 and p21 ([1]; 10 μM CI-1 added with 1×10^9 rAd-p53): approximately three fold
- increase in p53 and p21 levels ([2]; 5 μM CI-1 with 1×10^9 rAd-p53): two fold increase
- increase in p53 levels over rAd-p53 alone ([2]; 10 μM CI-1 with 1×10^9 rAd-p53): about a five fold increase
- increase in NF-kB activation (densitometer) (NF-kB): 42%
- increase in AP1 activation (densitometer) (AP-1): 50%
- increase in p53 levels [3]: 2–5 ×
